Source: US20150272911A1, “Use of AMPK Inducers and Metformin for the Treatment of Fibromyalgia” (priority 2014, published 2015)

Columns and labels:
[1] = tested on: blood mononuclear cells (BMCs) of patients with fibromyalgia; settings: BMCs of 20 fibromyalgia patients after metformin
From the text: (§1) In order to study the role of AMPK phosphorylation in patients with fibromyalgia, AMPK activation was induced with metformin, a potent AMPK stimulator, in the BMCs of 20 patients.
(§2) In order to evaluate the effect of metformin in in vitro models of fibromyalgia, we will use mononuclear cells isolated from patients with fibromyalgia and kept under culture conditions, with RPMI medium with 10% serum and 5% CO2. Parallel to this, skin fibroblasts isolated from patients with fibromyalgia kept under culture with DMEM medium with 20% serum and 5% CO2 will be used. These cultures will enable us to evaluate the toxicity of different doses of metformin and compounds that induce AMPK phosphorylation, through the quantification of apotosis and cell growth, by counting the nuclei of live cells. Once the ideal working dose has been found, below 5 mM, we will be able to quantify the protection against stressful stimuli through the effect of hydrogen peroxide, a very potent free radical. Using flow cytometry, we will evaluate the production of ROS before and after the treatment below 5 mM. Other parameters to be quantified at these doses will be ATP, by means of luminometry, citrate synthase as a marker of mitochondrial mass, by means of enzyme kinetics spectrophotometry, and inflammatory interleukins by means of ELISA.

[2] = tested on: inflammasome (IL-1β, IL-18) in BMCs of patients with fibromyalgia; assay: IL-1β and IL-18 inflammasome interleukins in cells of fibromyalgia patients; assay type: cell-based, human
From the text: as §1, §2

[3] = tested on: fibroblasts of patients with fibromyalgia; assay: Protection of patient fibroblasts exposed to hydrogen peroxide (cell death); assay type: cell-based, human; settings: low doses of hydrogen peroxide with metformin added, FIG. 4
Protocol: Parallel to this, skin fibroblasts isolated from patients with fibromyalgia kept under culture with DMEM medium with 20% serum and 5% CO2 will be used. […] Once the ideal working dose has been found, below 5 mM, we will be able to quantify the protection against stressful stimuli through the effect of hydrogen peroxide, a very potent free radical. Using flow cytometry, we will evaluate the production of ROS before and after the treatment below 5 mM. Other parameters to be quantified at these doses will be ATP, by means of luminometry, citrate synthase as a marker of mitochondrial mass, by means of enzyme kinetics spectrophotometry, and inflammatory interleukins by means of ELISA.

AMPK phosphorylation = assay: Mouse model of AMPK activation deficiency induced by compound C: biochemical parameters; assay type: in vivo, mice of the Swiss strain; settings: for ATP (deficit) / citrate synthase (mitochondrial mass) / lipid peroxidation / activation of IL-1β interleukin of the inflammasome / activation of IL-18 interleukin of the inflammasome: mice, compound C 20 mg/kg/day i.p., alone or with metformin; for ATP (deficit): FIG. 5; for citrate synthase (mitochondrial mass): FIG. 6; for lipid peroxidation / activation of IL-1β interleukin of the inflammasome / activation of IL-18 interleukin of the inflammasome: serum; for lipid peroxidation: FIG. 7; for activation of IL-1β interleukin of the inflammasome / activation of IL-18 interleukin of the inflammasome: FIG. 8
Protocol: The mice were injected by intraperitoneal route once a day, the final daily dose being 20 mg/kg/day. Another group of mice received the treatment with Compound C in addition to Metformin. The treatment is performed until the day the animals are sacrificed. […]
Blood: The blood will be the starting-point to obtain serum or isolate leukocytes. The following will be measured in the serum: glucose, triglycerides, cholesterol, lactate, proteins, redox potential, protein oxidation, etc. The following will be measured in the leukocytes: ATP, inflammatory interleukins, oxidative stress, mitochondrial mass.

mice [4] = assay: Symptoms of fibromyalgia (pain, depression) in mice with AMPK inhibited by compound c; assay type: in vivo; settings: then metformin
From the text: In order to monitor the effect of metformin in an in vivo model of AMPK deficit, we will use mice that will be administered compound c, a specific inhibitor of AMPK phosphorylation, in time, and their behaviour will be characterised one week before starting the administrations of compound c and 7 days after the first administration. […] Prior to beginning the administration of compound c and metformin, and following the pain behaviour tests, other behavioural tests will be conducted which show other symptoms presented by patients with fibromyalgia: […]

[5] = neuropathic pain (Russe et al., 2013), adiposis dolorosa (Labuzek et al., 2013); cited from earlier work
mice [6] = assay: Hot-plate test (nociception) in mice; assay type: in vivo; settings: after first five days of compound c; at Temp.<50° C. and Temp.>50° C.; FIG. 9
From the text: Another symptom associated with pain in fibromyalgia is depression.
In order to monitor the effect of metformin in an in vivo model of AMPK deficit, we will use mice that will be administered compound c, a specific inhibitor of AMPK phosphorylation, in time, and their behaviour will be characterised one week before starting the administrations of compound c and 7 days after the first administration. This experimental design will provide us with a view as to how metformin inhibits the effects induced by the deficit of AMPK and its influence on the behaviour of the mice, monitoring, with particular interest, those tests that show an alteration of nociception (hot plate, visceral pain [J Neurochem (2007) 103: 2629-39] and muscle pain [J Neurosci (2007) 27: 10000-6]). Prior to beginning the administration of compound c and metformin, and following the pain behaviour tests, other behavioural tests will be conducted which show other symptoms presented by patients with fibromyalgia: […]

mice [7] = settings: after first five days of compound c; FIG. 10
From the text: Following the first five days of administration of compound c, behavioural determinations were made in order to evaluate the symptoms. […] Another symptom associated with pain in fibromyalgia is depression.
Depression test: Tail suspension, forced swimming.

[8] = BMCs of fibromyalgia patients after metformin, FIG. 3

SMILES	ATP levels ([1]; FIG. 1)	mitochondrial ROS ([1]; FIG. 2)	IL-1β interleukin of the inflammasome [2, 8]	IL-18 interleukin of the inflammasome [2, 8]	inhibition of the inflammasome ([2]; cells of patients with fibromyalgia)	cell death [3]	inhibition of the inflammasome (AMPK phosphorylation; mice with inhibited AMPK)	ATP (deficit) (AMPK phosphorylation)	citrate synthase (mitochondrial mass) (AMPK phosphorylation)	lipid peroxidation (AMPK phosphorylation)	activation of IL-1β interleukin of the inflammasome (AMPK phosphorylation)	activation of IL-18 interleukin of the inflammasome (AMPK phosphorylation)	symptoms typical of fibromyalgia, such as pain or depression (mice [4])	analgesic effect [5]	response latency to the thermal stimulus (hot-plate test) (mice [6])	paralysis (immobilisation) in tail suspension test, reflecting depression (mice [7])
CN(C)C(=N)N=C(N)N [metformin]	significant recovery	decrease	decrease	decrease	demonstrated inhibition of the inflammasome	significantly reduced	demonstrated inhibition of the inflammasome	restored	restored	restored	restored	restored	recovery in the symptoms	strong analgesic effect		
c1cc(-c2cnn3cc(-c4ccc(OCCN5CCCCC5)cc4)cnc23)ccn1 [compound c]								induced alterations	induced alterations	induced alterations	induced alterations	induced alterations	presented symptoms typical of fibromyalgia		decrease in the response latency	greater paralysis
